Patent publication US8158779B2, “Antiviral nucleosides” (Medivir AB, priority 2006, dated 2012)

Tests used:
[1] = tested on: human primary hepatocytes; test: Intracellular triphosphate concentration and half life; type: in vitro ADME; details: 2 μM
Description: The putative active species of the compounds of the invention is β-D-2′-deoxy-2′-β-C-methyl-4′-azidocytidine triphosphate. The stability of the triphosphate is determined in fresh human primary hepatocytes (CellzDirect or In Vitro Technologies) pre-incubated with tritiated parent compound. The hepatocytes are cultured on 6 well collagen coated plates (BD Biosciences), typically at 1.5 million cells/well using complete serum-containing medium (CellzDirect or In Vitro Technologies)/37° C./5% CO2. Various hepatocyte strains are available, such as Hu497, MHL-091806 and Hu504 and it is therefore useful to test such strains in parallel and calculate mean values from a range of strains.
The pre-incubation is typically for 24 hours with 2 μM of the tritiated parent at 10 μC/ml. […] The concentration of intracellular triphosphate is quantified at different time points up to 72 hours. […]
At the appropriate timepoint, cells are harvested by aspirating the cell culture medium and washing the cells with cold PBS. […] The parent and intracellular metabolites are identified by comparison of the retention times of the intracellular species in the radiochromatogram with the retention of non-radioactive reference standards spiked in the cell extract samples and detected by UV absorption, typically at 270 nm […]

in vitro = details: human
HCV Pol = target: T1, HCV Pol (Hepatitis C virus genotype 1b, UniProt Q9WMX2); test: Renilla luciferase HCV replicon assay; type: cell-based
T1 construct: expressed in transfected cells
T1 sequence (Q9WMX2 2420-3010): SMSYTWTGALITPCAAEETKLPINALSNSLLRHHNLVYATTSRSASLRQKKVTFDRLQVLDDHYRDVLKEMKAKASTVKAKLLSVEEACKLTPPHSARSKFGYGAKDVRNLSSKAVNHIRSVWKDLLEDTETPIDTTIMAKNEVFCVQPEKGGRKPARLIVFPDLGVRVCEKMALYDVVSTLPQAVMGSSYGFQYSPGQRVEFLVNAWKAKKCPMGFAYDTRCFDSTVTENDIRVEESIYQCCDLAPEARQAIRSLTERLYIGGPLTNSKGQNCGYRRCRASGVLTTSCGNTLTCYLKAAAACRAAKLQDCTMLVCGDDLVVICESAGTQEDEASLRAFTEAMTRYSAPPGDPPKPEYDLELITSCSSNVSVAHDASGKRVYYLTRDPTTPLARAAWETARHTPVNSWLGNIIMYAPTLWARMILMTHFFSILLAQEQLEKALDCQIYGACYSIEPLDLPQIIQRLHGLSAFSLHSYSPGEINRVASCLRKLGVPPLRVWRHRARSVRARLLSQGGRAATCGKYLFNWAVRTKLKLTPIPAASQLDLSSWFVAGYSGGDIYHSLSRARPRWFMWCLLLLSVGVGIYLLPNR

[2] = tested on: Renilla luciferase HCV replicon cells (2209-23)

| steady state triphosphate level at 24 hours [1] [pM/million cells] | SMILES | cytotoxicity at 100 µM (in vitro) [%] | activity in cell based replicon assay for HCV polymerase activity (in words) (HCV Pol) | inhibition at 100 µM (HCV Pol; 100 μM, cell based replicon assay, read-out: Maximum % Inhibition HCV Pol (100 μM)) [%] | cytotoxicity in the replicon assay (in words) [2] |
| --- | --- | --- | --- | --- | --- |
| 1.3 | C[C@@]1(F)[C@H](O)[C@@H](CO)O[C@H]1n1ccc(N)nc1=O [PSI-6130, β-D-2′-deoxy-2′-fluoro-2′-β-C-methylcytidine] | – | – | – | – |
| – | CC1C(n2ccc(N)nc2=O)OC(CO)(N=[N+]=[N-])C1O (centres unmarked) [Compound 22, 4-Amino-1-(5-azido-4-hydroxy-5-hydroxymethyl-3-methyl-tetrahydro-furan-2-yl)-1H-pyrimidin-2-one] | 9.48 | good activity | 98.6 | low levels of cytoxicity |
